Measured values: PubChem BioAssay (NCI)
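Following 48 hours of exposure in 96-well plates, responses at five concentrations were used to interpolate endpoints linearly. GI50 = concentration required for 50% inhibition of growth. TGI marks complete inhibition of growth.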

Assays:
Assay in all cases: DTP human tumour cell line panel, 48 h
[1] = system: RPMI-8226 leukemia
[2] = system: UACC-62 melanoma
[3] = system: SNB-19 CNS
[4] = system: HOP-62 NSCLC
[5] = system: SK-MEL-5 melanoma
[6] = system: SF-295 CNS
[7] = system: T-47D breast
[8] = system: NCI-H23 lung
[9] = system: UO-31 renal
[10] = system: SK-MEL-28 melanoma
[11] = system: NCI/ADR-RES ovarian
[12] = system: CCRF-CEM leukemia
[13] = system: NCI-H460 lung
[14] = system: K-562 leukemia
[15] = system: SK-MEL-2 melanoma
[16] = system: 786-0 renal
[17] = system: EKVX NSCLC
[18] = system: A498 renal
[19] = system: MDA-MB-231 breast
[20] = system: A549 NSCLC
[21] = system: NCI-H522 lung
[22] = system: SF-268 CNS
[23] = system: HCT-15 colon
[24] = system: HCT-116 colon
[25] = system: NCI-H226 lung
[26] = system: OVCAR-4 ovarian
[27] = system: HOP-92 NSCLC
[28] = system: SK-OV-3 ovarian
[29] = system: CAKI-1 renal
[30] = system: ACHN renal
[31] = system: MALME-3M melanoma
[32] = system: M14 melanoma
[33] = system: U251 CNS
[34] = system: DU-145 prostate
[35] = system: COLO 205 colon
[36] = system: MCF7 breast
[37] = system: BT-549 breast
[38] = system: SN12C renal
[39] = system: IGROV1 ovarian
[40] = system: SR leukemia
[41] = system: HCC-2998 colon
[42] = system: HT29 colon
[43] = system: UACC-257 melanoma
[44] = system: OVCAR-5 ovarian
[45] = system: OVCAR-8 ovarian
[46] = system: SW-620 colon
[47] = system: RXF 393 renal
[48] = system: KM12 colon
[49] = system: SF-539 CNS
[50] = system: MDA-MB-435
[51] = system: TK-10 renal
[52] = system: OVCAR-3 ovarian
[53] = system: PC-3 prostate
[54] = system: MOLT-4 leukemia
[55] = system: HL-60(TB) leukemia
[56] = system: HS 578T breast
[57] = system: LOX IMVI melanoma
[58] = system: SNB-75 CNS

With `CC(=O)OC1CN2CCC1CC2` (centres undefined) as the compound, how does the TGI [1] read?
The TGI was > 100 µM.

What about the TGI [2] of the same compound?
The TGI was > 100 µM.

What about the TGI [3] of the same compound?
Its TGI is > 100 µM.

And the TGI [4]?
Its TGI is > 100 µM.

And the TGI [5]?
Its TGI is > 100 µM.

What about the TGI [6] of the same compound?
The TGI was > 100 µM.

And the TGI [7]?
The TGI was > 100 µM.

And the TGI [8]?
Its TGI is > 100 µM.

And the TGI [9]?
The TGI was > 100 µM.

And the TGI [10]?
The TGI was > 100 µM.

And the TGI [11]?
The TGI was > 100 µM.

What about the TGI [12] of the same compound?
Its TGI is > 100 µM.

And the TGI [13]?
The TGI was > 100 µM.

And the TGI [14]?
Its TGI is > 100 µM.

And the TGI [15]?
The TGI was > 100 µM.

What about the TGI [16] of the same compound?
Its TGI is > 100 µM.

What about the TGI [17] of the same compound?
Its TGI is > 100 µM.

What about the TGI [18] of the same compound?
The TGI was > 100 µM.

And the TGI [19]?
The TGI was > 100 µM.

What about the TGI [20] of the same compound?
The TGI was > 100 µM.

And the TGI [21]?
The TGI was > 100 µM.

What about the TGI [22] of the same compound?
The TGI was > 100 µM.

What about the TGI [23] of the same compound?
Its TGI is > 100 µM.

What about the TGI [24] of the same compound?
The TGI was > 100 µM.

What about the TGI [25] of the same compound?
Its TGI is > 100 µM.

What about the TGI [26] of the same compound?
Its TGI is > 100 µM.

What about the TGI [27] of the same compound?
The TGI was > 100 µM.

What about the TGI [28] of the same compound?
Its TGI is > 100 µM.

And the TGI [29]?
The TGI was > 100 µM.

What about the TGI [30] of the same compound?
The TGI was > 100 µM.

And the TGI [31]?
The TGI was > 100 µM.

And the TGI [32]?
The TGI was > 100 µM.

And the TGI [33]?
Its TGI is > 100 µM.

What about the TGI [34] of the same compound?
The TGI was > 100 µM.

And the TGI [35]?
The TGI was > 100 µM.

And the TGI [36]?
Its TGI is > 100 µM.

And the TGI [37]?
Its TGI is > 100 µM.

What about the TGI [38] of the same compound?
Its TGI is > 100 µM.

What about the TGI [39] of the same compound?
The TGI was > 100 µM.

And the TGI [40]?
Its TGI is > 100 µM.

And the TGI [41]?
Its TGI is > 100 µM.

What about the TGI [42] of the same compound?
The TGI was > 100 µM.

What about the TGI [43] of the same compound?
The TGI was > 100 µM.

What about the TGI [44] of the same compound?
The TGI was > 100 µM.

And the TGI [45]?
Its TGI is > 100 µM.

And the TGI [46]?
The TGI was > 100 µM.

And the TGI [47]?
The TGI was > 100 µM.

What about the TGI [48] of the same compound?
Its TGI is > 100 µM.

What about the TGI [49] of the same compound?
The TGI was > 100 µM.

And the TGI [50]?
The TGI was > 100 µM.

What about the TGI [51] of the same compound?
Its TGI is > 100 µM.

And the TGI [52]?
Its TGI is > 100 µM.

And the TGI [53]?
The TGI was > 100 µM.

And the TGI [54]?
The TGI was > 100 µM.

And the TGI [55]?
Its TGI is > 100 µM.

And the TGI [56]?
The TGI was > 100 µM.

What about the TGI [57] of the same compound?
The TGI was > 100 µM.

What does the source list for `OCCCCC#Cc1ccccc1C#Cc1ccccn1`?
GI50 [1]: 16.4 µM; TGI [1]: 37.4 µM; GI50 [2]: 23.1 µM; TGI [2]: > 100 µM; GI50 [3]: 42.1 µM; TGI [3]: > 100 µM; GI50 [4]: 29.4 µM; TGI [4]: > 100 µM; GI50 [5]: 19.1 µM; TGI [5]: 41.4 µM; GI50 [6]: 21.8 µM; TGI [6]: 65.2 µM; GI50 [7]: 15.9 µM; TGI [7]: 80.6 µM; GI50 [8]: 25.2 µM; TGI [8]: > 100 µM; GI50 [9]: 32.3 µM; TGI [9]: > 100 µM; GI50 [10]: 31 µM; TGI [10]: > 100 µM; GI50 [11]: 27.3 µM; TGI [11]: 77.4 µM; GI50 [12]: 31.4 µM; TGI [12]: > 100 µM; GI50 [13]: 24.8 µM; TGI [13]: 76.4 µM; GI50 [14]: 29 µM; TGI [14]: > 100 µM; GI50 [15]: 41.6 µM; TGI [15]: > 100 µM; GI50 [16]: 38.3 µM; TGI [16]: > 100 µM; GI50 [17]: 27.7 µM; TGI [17]: 67 µM; GI50 [18]: 8.99 µM; TGI [18]: 49.7 µM; GI50 [19]: 21 µM; TGI [19]: 64.9 µM; GI50 [20]: 33.6 µM; TGI [20]: > 100 µM; GI50 [21]: 22.2 µM; TGI [21]: 56 µM; GI50 [22]: 29.8 µM; TGI [22]: > 100 µM; GI50 [23]: 29.8 µM; TGI [23]: > 100 µM; GI50 [24]: 30.8 µM; TGI [24]: > 100 µM; GI50 [25]: 31.3 µM; TGI [25]: > 100 µM; GI50 [26]: 30.3 µM; TGI [26]: > 100 µM; GI50 [27]: 26.6 µM; TGI [27]: 94.6 µM; GI50 [28]: > 100 µM; TGI [28]: > 100 µM; GI50 [29]: 28.6 µM; TGI [29]: > 100 µM; GI50 [30]: 31.8 µM; TGI [30]: > 100 µM; GI50 [31]: 27.1 µM; TGI [31]: > 100 µM; GI50 [33]: 31.2 µM; TGI [33]: > 100 µM; GI50 [34]: 9.78 µM; TGI [34]: 74.6 µM; GI50 [35]: 31.1 µM; TGI [35]: > 100 µM; GI50 [36]: 37.8 µM; TGI [36]: > 100 µM; GI50 [37]: 15.8 µM; TGI [37]: 47.4 µM; GI50 [38]: 32.1 µM; TGI [38]: > 100 µM; GI50 [39]: 27.2 µM; TGI [39]: > 100 µM; GI50 [58]: 14.9 µM; TGI [58]: 51.5 µM; GI50 [40]: 25.5 µM; TGI [40]: 96.2 µM; GI50 [41]: 26.4 µM; TGI [41]: 72.9 µM; GI50 [42]: 26.1 µM; TGI [42]: > 100 µM; GI50 [43]: 28.8 µM; TGI [43]: 87.2 µM; GI50 [44]: > 100 µM; TGI [44]: > 100 µM; GI50 [45]: 32.4 µM; TGI [45]: > 100 µM; GI50 [46]: 45.7 µM; TGI [46]: > 100 µM; GI50 [47]: 25 µM; TGI [47]: 62.3 µM; GI50 [48]: 29.7 µM; TGI [48]: > 100 µM; GI50 [49]: 17.8 µM; TGI [49]: 42.7 µM; GI50 [50]: 25.1 µM; TGI [50]: 79.4 µM; GI50 [51]: 61 µM; TGI [51]: > 100 µM; GI50 [52]: 26.1 µM; TGI [52]: 77.3 µM; GI50 [53]: 24.6 µM; TGI [53]: 73.9 µM; GI50 [54]: 21.4 µM; TGI [54]: > 100 µM; GI50 [56]: 25.6 µM; TGI [56]: 88.3 µM; GI50 [57]: 27.7 µM; TGI [57]: > 100 µM
